System: effect of prednisone on eosinophils, lymphocytes, neutrophils, osteocalcin
Test: First In Human study Part 3, proof of pharmacological effect (prednisone challenge)
Type: in vivo
From the text: Linear mixed model of PD parameter estimates from part 3 of the FIE study, including terms for treatment fitted as a fixed effect, subject fitted as a random effect, and baseline concentration values fitted as a covariate. AUEC, area under the effect curve; cfb, change from baseline; CI, confidence interval; Emax, maximum change; ns, not significant.

In the case of C[C@]12C=CC(=O)C=C1CC[C@@H]1[C@@H]2C(=O)C[C@@]2(C)[C@H]1CC[C@]2(O)C(=O)CO [Prednisone, prednisone], the “EOSINOPHILS AUEC(0-24) cfb (adjusted arithmetic mean)” value (Prednisone (25 mg) alone) is reported as −2.80 109*h/L, the “LYMPHOCYTES AUEC(0-24) cfb (adjusted arithmetic mean)” value (Prednisone (25 mg) alone) is reported as −2.470 109*h/L and the “NEUTROPHILS AUEC(0-24) cfb (adjusted arithmetic mean)” value (Prednisone (25 mg) alone) is reported as 74.7 109*h/L. The “effect of a single dose on eosinophils, lymphocytes, osteocalcin and neutrophils” value (single dose of prednisone) was “decreased eosinophils, lymphocytes, and osteocalcin, and increased neutrophils”.
